From the supplement of paper PMC10307832

How the values were obtained:
Test in all cases: relative viability (nuclei count vs DMSO), 5 days (fraction); higher = more cells survive
[1] = compound: Cn1nnc2c(C(N)=O)ncn2c1=O [Temozolomide] + CC(=O)Nc1cccc(-n2c(=O)n(C3CC3)c(=O)c3c(Nc4ccc(I)cc4F)n(C)c(=O)c(C)c32)c1 [Trametinib] (partner 0.02 µM)
Method in brief: (§1)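 One day after seeding in 1536-well plates, lung cancer cell lines were dosed by pin tool. Dosing was either single-drug or a fixed anchor-drug dose plus five library-drug doses (not always all listed) in √10 steps. After 5 days, nuclei were stained in one fix-and-stain step and counted on 4× images, and relative viability is the nuclei count of treated wells over that of vehicle wells, given as the median of duplicate plates.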

Temozolomide + AZD7762 = compound: Cn1nnc2c(C(N)=O)ncn2c1=O [Temozolomide] + NC(=O)Nc1cc(-c2cccc(F)c2)sc1C(=O)N[C@H]1CCCNC1 [AZD7762] (partner 0.2 µM)
Method in brief: as §1

AZD5582 + Decitabine = compound: C[C@@H](C(=O)N[C@@H](C1CCCCC1)C(=O)N2CCC[C@H]2C(=O)N[C@@H]3[C@@H](CC4=CC=CC=C34)OCC#CC#CCO[C@@H]5CC6=CC=CC=C6[C@@H]5NC(=O)[C@@H]7CCCN7C(=O)[C@H](C8CCCCC8)NC(=O)[C@H](C)NC)NC [AZD5582] + Nc1ncn([C@H]2C[C@H](O)[C@@H](CO)O2)c(=O)n1 [Decitabine] (partner 2 µM)
Method in brief: as §1

AZD5582 + Pictilisib = compound: C[C@@H](C(=O)N[C@@H](C1CCCCC1)C(=O)N2CCC[C@H]2C(=O)N[C@@H]3[C@@H](CC4=CC=CC=C34)OCC#CC#CCO[C@@H]5CC6=CC=CC=C6[C@@H]5NC(=O)[C@@H]7CCCN7C(=O)[C@H](C8CCCCC8)NC(=O)[C@H](C)NC)NC [AZD5582] + CS(=O)(=O)N1CCN(Cc2cc3nc(-c4cccc5[nH]ncc45)nc(N4CCOCC4)c3s2)CC1 [Pictilisib] (partner 1 µM)
Method in brief: as §1

| Cell Line | relative viability ([1]; first compound 0.2 µM) | relative viability ([1]; first compound 0.6325 µM) | relative viability ([1]; first compound 2 µM) | relative viability ([1]; first compound 6.325 µM) | relative viability ([1]; first compound 20 µM) | relative viability (Temozolomide + AZD7762; first compound 0.2 µM) | relative viability (Temozolomide + AZD7762; first compound 0.6325 µM) | relative viability (Temozolomide + AZD7762; first compound 2 µM) | relative viability (Temozolomide + AZD7762; first compound 6.325 µM) | relative viability (Temozolomide + AZD7762; first compound 20 µM) | relative viability (AZD5582 + Decitabine; first compound 0.001581 µM) | relative viability (AZD5582 + Decitabine; first compound 0.005 µM) | relative viability (AZD5582 + Decitabine; first compound 0.01581 µM) | relative viability (AZD5582 + Decitabine; first compound 0.05 µM) | relative viability (AZD5582 + Pictilisib; first compound 0.001581 µM) | relative viability (AZD5582 + Pictilisib; first compound 0.005 µM) | relative viability (AZD5582 + Pictilisib; first compound 0.01581 µM) | relative viability (AZD5582 + Pictilisib; first compound 0.05 µM) |
| --- | --- | --- | --- | --- | --- | --- | --- | --- | --- | --- | --- | --- | --- | --- | --- | --- | --- | --- |
| LC-2-ad | 0.935 | 0.926 | 0.912 | 0.895 | 0.859 | 0.842 | 0.85 | 0.873 | 0.837 | 0.675 | 0.822 | 0.847 | 0.765 | 0.764 | 0.327 | 0.673 | 0.644 | 0.662 |
| LCLC-97TM1 | 0.222 | 0.161 | 0.234 | 0.199 | 0.173 | 0.352 | 0.293 | – | 0.168 | 0.253 | 0.216 | 0.189 | 0.243 | 0.0933 | – | 0.244 | 0.15 | 0.154 |
| LCLC-103H | 0.725 | 0.624 | 0.686 | 0.678 | 0.617 | 0.849 | 0.758 | 0.902 | 0.678 | 0.771 | 0.698 | 0.798 | 0.718 | 0.724 | 0.649 | 0.699 | 0.454 | 0.559 |
| LK-2 | 0.653 | 0.685 | 0.663 | 0.653 | 0.489 | 0.444 | 0.372 | 0.404 | 0.254 | 0.271 | 0.257 | 0.277 | 0.307 | 0.326 | 0.474 | 0.575 | 0.581 | 0.603 |
| LOU-NH91 | 0.731 | 0.806 | 0.793 | 0.806 | 0.7 | 0.77 | 0.784 | 0.836 | 0.79 | 0.75 | 0.803 | 0.835 | 0.824 | 0.794 | 0.557 | 0.521 | 0.534 | 0.539 |
| LU99A | 0.555 | 0.522 | 0.6 | 0.555 | 0.61 | 0.377 | 0.355 | 0.353 | 0.421 | 0.43 | 0.882 | 1.09 | 0.829 | 0.97 | 0.315 | 0.323 | 0.291 | 0.37 |
| LXF-289 | 0.693 | 0.693 | 0.683 | 0.653 | 0.667 | 1.12 | 1.08 | 1.08 | 1.06 | 1.07 | 0.372 | 0.331 | 0.391 | 0.308 | 0.705 | 0.795 | 0.757 | 0.794 |
| NCI-H23 | 0.353 | 0.348 | 0.427 | 0.381 | 0.358 | 0.247 | 0.278 | 0.282 | 0.181 | 0.255 | 0.334 | 0.293 | 0.27 | 0.278 | 0.419 | 0.387 | 0.408 | 0.327 |
